Where two headings read alike, the source gives them in different places. Marks after values point to notes of the source that are not given here.
Assays:
[1] = test system: Caco-2 cell monolayers; experiment: Bidirectional transport (Papp, efflux ratio) of antimalarials through Caco-2 cell monolayers; assay type: in vitro ADME, human
Method: (§1) The initial experiments were conducted in mid-40s passage cells and repeated in early 80s passage Caco-2 cells. […] In order to maintain equivalent transport medium (HBSS/HBSS with inhibitor) level both outside and inside the chambers, 300 μL was used as medium in the apical chambers and 600 μL in the basolateral chambers. […] Drugs were co-incubated with MRCP, BCRP and ATP hydrolysis blockers to determine the involvement of other efflux mechanisms. Prior to the experiment, the transport medium, HBSS or HBSS with P-gp inhibitors were pre-incubated with the cells for 30 minutes. Following incubation, inserts were placed in new well plates and donor chamber is replaced with drug or drug with inhibitor and the receiver chamber with blank HBSS or HBSS with inhibitor. Transport medium was collected from the receiver chamber after stirring at time intervals of 30, 60, 90 and 120 minutes and was replaced with the same volume of fresh HBSS, or HBSS with inhibitor, when P-gp inhibitors were used in the study. At the end of the experiment 100 μL of medium was removed from the donor chamber in addition to medium collected from the receiver chamber during the study. The cells were then washed thoroughly in cold (4°C) PBS and cell membranes attached to the inserts were sonicated for 10 minutes in a sonicating water bath and centrifuged at 10,000 g for 10 minutes. Supernatant was frozen at -80°C until assayed. […] CL.vol=[…].vol = clearance volume (mL), n = time (min), Aa = amount in acceptor compartment at time n (pmols), Cd0 = concentration in donor compartment at time zero (nM), Vd = volume of the donor compartment (mL), Ca = concentration in acceptor compartment at the previous time point (nM), Vs = sample volume of previous time point (mL), Ac = amount of compound associated with the cells (pmol), Nfin = final time point (min). […] The cleared volume was plotted against time and the slope of the regression line was divided by the surface area to obtain the Papp values. […] The method from Davis and colleagues was adopted with slight modifications. Separations were performed using an Apollo C18 (5 μm, 4.6x150mm) column attached to a matched guard column (5 μm, 4.6x5.5 mm). […] The injection volume was 40 μL and column oven was maintained at 35°C. The analytes were detected at 222 nm and the retention time was 5.6 minutes. Assay developed by Pussard and co-workers were used and slight modifications were done to adjust laboratory conditions. Separation was done using a Prevail C18 (3 μm, 4.6x150mm) column attached to a Direct-connect^TM universal column prefilter. The mobile phase consisted of 20 mM (w/v) KH2PO4 in deionized water at pH 3.0 and acetonitrile (82:18) v/v. […] The injection volume was 40 μL and column oven was maintained at 30°C. The analytes were detected at 343 nm with a retention time of 2.4 minutes. […] Separations were performed using an Apollo C18 (5 μm, 4.6x150mm) column attached to matched guard column (5 μm, 4.6x5.5mm). […] The injection volume was 40 μL and column oven was maintained at 30°C. The analytes were detected at 660 nm with a retention time of 3.8 minutes. A 40 μL sample was spiked with 5 μL 0.5 mM artemisinin internal standard. […] The pipettor was adjusted to the maximum volume (100 μL). […] Pre-treated samples were loaded into the tips by gently aspirating and discarding into the same vial. The process was repeated 10 times in order to increase binding efficiency of drugs to the OMIX 96 C4 matrix. […] The LC-MS method described by […] and co-workers were modified to suit the LC-MS-MS conditions. […] Wexford, Ireland) at 40°C. […] Quantitation was performed in multiple reactions monitoring, MRM mode, using DUIS (ESI^+ and APCI^+) ion sources. […] The optimized mass spectra were acquired with an interface voltage of 4.5 kV, a detector voltage of 1.0 kV, a heat block temperature of 500°C and a desolvation temperature of 160°C.

[2] = as above; assay type: in vitro ADME, human; details: human; for Papp at 120 min: Caco-2, Caco-2 monolayers
Method: as §1

## OC(c1cc(C(F)(F)F)nc2c(C(F)(F)F)cccc12)C1CCCCN1 (centres unmarked) [MQ, mefloquine]
[1]; Conc (μM) + inhibitor (μM): 10
  Net flow direction: Diffusion (0.02) ^*
[1]; Conc (μM) + inhibitor (μM): 20
  Net flow direction: Diffusion (0.66)
[1]; Conc (μM) + inhibitor (μM): 100
  Net flow direction: Diffusion (0.08)
[1]; based on FDA biopharmaceutical classification system
  drug absorption predicted from Papp: 50–84%
[2]; drug alone, read-out: Ap-Bas directional Papp, range over concentrations tested
  Papp at 120 min: 6 to 10 ×10⁻⁶ cm/s
[2]; drug alone, read-out: Bas-Ap directional Papp, range over concentrations tested
  Papp at 120 min: 5 to 7 ×10⁻⁶ cm/s
[2]; read-out: permeability across the gastrointestinal epithelium (class)
  Papp at 120 min: 1 to 25 ×10⁻⁶ cm/s
[2]; summary in abstract, methylene blue depending on the direction of transport, read-out: permeability
  Papp at 120 min: ~10 ×10⁻⁶ cm/s
[2]; Caco-2, Conc (μM) + inhibitor (μM): 100, Bas-Ap divided by Ap-Bas
  efflux ratio at 120 min, 100 µM: 1.2
[2]; Caco-2, Conc (μM) + inhibitor (μM): 10, Bas-Ap divided by Ap-Bas
  efflux ratio at 120 min, 10 µM: 0.7
[2]; Caco-2, Conc (μM) + inhibitor (μM): 10, first-named drug measured, read-out: Papp Ap-Bas
  Papp at 120 min, 10 µM: 9.9 ± 0.7 ×10⁻⁶ cm/s
[2]; Caco-2, Conc (μM) + inhibitor (μM): 10, first-named drug measured, read-out: Papp Bas-Ap
  Papp B→A at 120 min, 10 µM: 6.6 ± 0.4 ×10⁻⁶ cm/s
[2]; Caco-2, Conc (μM) + inhibitor (μM): 20, Bas-Ap divided by Ap-Bas
  efflux ratio at 120 min, 20 µM: 0.9
[2]; Caco-2, Conc (μM) + inhibitor (μM): 20, first-named drug measured, read-out: Papp Ap-Bas
  Papp at 120 min, 20 µM: 5.8 ± 0.7 ×10⁻⁶ cm/s
[2]; Caco-2, Conc (μM) + inhibitor (μM): 20, first-named drug measured, read-out: Papp Bas-Ap
  Papp B→A at 120 min, 20 µM: 5.3 ± 0.9 ×10⁻⁶ cm/s
[2]; Caco-2, Conc (μM) + inhibitor (μM): 100, first-named drug measured, read-out: Papp Ap-Bas
  Papp at 120 min, 100 µM: 8.9 ± 0.7 ×10⁻⁶ cm/s
[2]; Caco-2, Conc (μM) + inhibitor (μM): 100, first-named drug measured, read-out: Papp Bas-Ap
  Papp B→A at 120 min, 100 µM: 11.4 ± 0.8 ×10⁻⁶ cm/s
